# Data published in patent US9428732B2, “Compositions and methods for differentiating pluripotent stem cells into primitive blood cells and uses thereof” (Primorigen Biosciences, Inc., priority 2011, dated 2016).
# How the values were obtained:
# Assay type in all cases: cell-based, human
# [1] = system: ES and iPS cells; test: Small molecule screen, FACS of cells differentiated from pluripotent stem cells; conditions: relative to DMSO control, DEAB 10 μM, rapamycin 0.1 μM
# Procedure: (§1) Cells from the differentiation cultures were collected at time points indicated and washed in phosphate-buffered saline (PBS) supplemented with 2% FBS. Adherent cells were individualized using TrypLE (Life Technologies, Carlsbad Calif.), passed through a 27.5-gauge needle and filtered through a 40-70 μm cell strainer (BD Falcon, San Diego, Calif., www.bdbiosciences.com). Cells were treated with 7-aminoactinomycin D (7AAD) before analysis, and positive cells were gated out of results. Cells were stained with fluorescence-conjugated antibodies for the hematopoietic stem and progenitor cell markers CD45, CD43, CD34, CD38, CD90; CD45RA. Cells were analyzed on a FACS Canto (BD, Franklin Lakes, N.J., www.bd.com).
# A small molecule screen was performed to identify compounds that improve the output of hematopoietic progenitor cells (HPCs; CD45+, CD43+, CD34+) and phenotypic hematopoietic stem cells (HSCs; CD45+, CD43+, CD34+, CD38−, CD90+, CD45RA−) differentiated from pluripotent stem cells. Molecules targeting pathways known or suspected of being important in hematopoiesis were screened. […] Cells were analyzed using fluorescence activated cell sorting (FACS; FIGS. 3A, 3B, and 3C) and CFU-GEMM assays (FIG. 3D). […]
# [2] = system: ES and iPS cells; test: Small molecule screen, CFU-GEMM assays of myeloid progenitors; conditions: relative to DMSO control; DEAB 10 μM, rapamycin 0.1 μM; FIG. 3D
# Procedure: (§2) The differentiation cultures were trypsinized at the indicated time points and single-cell suspensions were generated following trypsinization. For the Colony Forming Unit (CFU) assays using methyl cellulose cultures, 25% of the cells were plated in 2 ml of MethoCult H4435 (STEMCELL Technologies, Vancouver, BC) in six-well plates. Alternatively, sorted CD45+, CD43+, CD34+, 7AAD-cells were sorted and plated at 500 cells per 2 ml Methocult media. Cells were incubated for 14 days in a humidified incubator at 37° C. with 5% CO2 and evaluated for colonies by bright-field microscopy (Zeiss (Oberkochen, Germany, www.zeiss.com) Axiovert 200 with a Zeiss Axiocam), Cells were resuspended in PBS supplemented with 2% FBS. For the lymphoid myeloid differentiation assays, either CD45+, CD43+, CD34+, 7AAD-hematopoietic progenitors, or CD45+, CD43+, CD34+, CD38−, CD90+, CD45RA− phenotypic HSCs were plated at 20-40 cells per well onto OP9 and OP9delta feeder lines for B-cell and T-cell differentiation, respectively, as previously described (Nozad Charoudeh H, Tang Y, Cheng M, Cilio C M, Jacobsen S E, Sitnicka E., Identification of an NK/T cell-restricted progenitor in adult bone marrow contributing to bone marrow- and thymic-dependent NK cell, Blood, 2010 Jul. 15; 116(2):183-92. NK cell differentiation as well as myeloid cell differentiation was also detected in this differentiation system. […]
# [3] = system: Pluripotent stem cells (iPS and ES); test: Effects of DEAB on blood cell phenotypes, flow cytometry at Day 16; conditions: DEAB 10 uM vs DMSO
# Procedure: as §1
# Cells were counted using the FACS cell counter feature (BD) or by cytometer using a bright-field microscope to obtain viable cell numbers. The total numbers of cells of each subpopulation were calculated by multiplying the number of cells by the proportion of cells of that lineage as determined by flow cytometry. Statistical analyses of data points and error bars of this study show mean and standard deviation, with statistical significance assessed by the Student's t-test.
# From Example 1, DEAB was selected to move forward into an experiment further establishing the phenotypes of blood cells emerging from the differentiation in order to identify at what stage of differentiation DEAB may exert its effects. Pluripotent stem cells (iPS and ES) were grown and induced to produce embryoid bodies on Day 8 as described. The EBs were then exposed to Differentiation Medium 1 for a total of 8 days with partial medium changes made every other day as described. Cells were harvested on Day 16 and washed in phosphate-buffered saline (PBS) supplemented with 2% FBS. Adherent cells were individualized using TrypLE (Life Technologies, Carlsbad Calif.), passed through a 27.5-gauge needle and filtered through a 40-70 μm cell strainer (BD Falcon, San Diego, Calif., www.bdbiosciences.com). Cells were treated with 7-aminoactinomycin D before analysis and positive cells were gated out of results. Cells were stained with fluorescence conjugated antibodies for the hematopoietic stem and progenitor cell markers CD45, CD43, CD34, CD38, CD90, CD45RA. Cells were analyzed on an FACS Canto (BD, Franklin Lakes, N.J., www.bd.com).
# [4] = system: hematopoietic progenitor cells differentiated from iPS cells; test: Colony Forming Unit (CFU) assay in methyl cellulose with DEAB; conditions: 10 µM DEAB; 14 days MethoCult
# Procedure: as §2
smiles,measurement,setting,value
"CCN(CC)c1ccc(C=O)cc1 [DEAB, 4-diethylaminobenzaldehyde]","output of total blood cells (CD45+, CD43+)",[1]; FIG. 3C,increased
same,"output of HSCs (CD45+, CD43+, CD34+, CD38−, CD90+, CD45RA−)",[1]; FIGS. 3A and B,increased
same,output of myeloid progenitors (CFU/BFU),[2],increased
same,"blood cells (CD45+, CD43+)",[3]; Day 16,modestly higher values
same,"hematopoietic progenitor cells (CD45+, CD43+, CD34+)",[3]; Day 16,modestly higher values
same,"population of cells exhibiting a hematopoietic stem cell phenotype (CD45+, CD43+, CD34+, CD38−, CD90+, CD45RA−)",[3]; Day 16,substantial improvement
same,total viable cells,[3]; Day 16,modestly higher values
same,increase in generation of the phenotypic stem cell phenotype,[3]; FIGS. 4B and 4D,over 3 fold
same,"levels of all four major CFU assay types (CFU-G, CFU-M, CFU-GEMM, BFU-E)",[4],measurable levels
same,total number of colonies vs cells not differentiated in the presence of DEAB (DMSO control),[4],more than double
